Source: publication PMC4620497 (Scientific Reports, 2015)

How the values were obtained:
RIOK2 = biological target: T1, RIOK2 (Homo sapiens, UniProt Q9BVS4); experiment: KINOMEscan panel screen; type: binding; settings: read-out: Percent Control(%)
T1 construct: purchased DiscoveRx KINOMEscan (Ambit Biosciences)

BTK = BTK (Homo sapiens, UniProt Q06187); experiment: KINOMEscan kinase binding assay (Kd)
QSK = biological target: T2, QSK (Homo sapiens, UniProt Q9Y2K2); experiment: KINOMEscan panel screen; type: binding; settings: read-out: Percent Control(%)
T2 construct: purchased DiscoveRx KINOMEscan (Ambit Biosciences)

MKNK1 = biological target: T3, MKNK1 (Homo sapiens, UniProt Q9BUB5); experiment: KINOMEscan panel screen; type: binding; settings: read-out: Percent Control(%)
T3 construct: purchased DiscoveRx KINOMEscan (Ambit Biosciences)

ANKK1 = biological target: T4, ANKK1 (Homo sapiens, UniProt Q8NFD2); experiment: KINOMEscan panel screen; type: binding; settings: read-out: Percent Control(%)
T4 construct: purchased DiscoveRx KINOMEscan (Ambit Biosciences)

CSNK1E = biological target: T5, CSNK1E (Homo sapiens, UniProt P49674); experiment: KINOMEscan panel screen; type: binding; settings: read-out: Percent Control(%)
T5 construct: purchased DiscoveRx KINOMEscan (Ambit Biosciences)

CIT = biological target: T6, CIT (Homo sapiens, UniProt O14578); experiment: KINOMEscan panel screen; type: binding; settings: read-out: Percent Control(%)
T6 construct: purchased DiscoveRx KINOMEscan (Ambit Biosciences)

SRPK1 = biological target: T7, SRPK1 (Homo sapiens, UniProt Q96SB4); experiment: KINOMEscan panel screen; type: binding; settings: read-out: Percent Control(%)
T7 construct: purchased DiscoveRx KINOMEscan (Ambit Biosciences)

VEGFR2 = biological target: T8, VEGFR2 (Homo sapiens, UniProt P35968); experiment: KINOMEscan kinase binding assay (Kd)
T8 construct: DNA tag (qPCR read-out); purchased Ambit Biosciences (KINOMEscan service)

GSK3B = biological target: T9, GSK3B (Homo sapiens, UniProt P49841); experiment: KINOMEscan panel screen; type: binding; settings: read-out: Percent Control(%)
T9 construct: purchased DiscoveRx KINOMEscan (Ambit Biosciences)

[1] = biological target: T10, ABL1(Y253F)-phosphorylated (Homo sapiens, UniProt P00519, Y253F); experiment: KINOMEscan panel screen; type: binding; settings: read-out: Percent Control(%)
T10 construct: purchased DiscoveRx KINOMEscan (Ambit Biosciences)

FLT3-wt = biological target: T11, FLT3-wt (Homo sapiens, UniProt P36888); experiment: KINOMEscan kinase binding assay (Kd)
T11 construct: DNA tag (qPCR read-out); purchased Ambit Biosciences (KINOMEscan service)

[2] = biological target: T12, ABL1(M351T)-phosphorylated (Homo sapiens, UniProt P00519, M351T); experiment: KINOMEscan panel screen; type: binding; settings: read-out: Percent Control(%)
T12 construct: purchased DiscoveRx KINOMEscan (Ambit Biosciences)

CDK5 = biological target: T13, CDK5 (Homo sapiens, UniProt Q00535); experiment: KINOMEscan panel screen; type: binding; settings: read-out: Percent Control(%)
T13 construct: purchased DiscoveRx KINOMEscan (Ambit Biosciences)

EGFR(T790M) = biological target: T14, EGFR(T790M) (Homo sapiens, UniProt P00533, T790M); experiment: KINOMEscan panel screen; type: binding; settings: read-out: Percent Control(%)
T14 construct: purchased DiscoveRx KINOMEscan (Ambit Biosciences)

CAMKK2 = biological target: T15, CAMKK2 (Homo sapiens, UniProt Q96RR4); experiment: KINOMEscan panel screen; type: binding; settings: read-out: Percent Control(%)
T15 construct: purchased DiscoveRx KINOMEscan (Ambit Biosciences)

H1975 = experiment: MTT cell viability assay; settings: Homo sapiens, NCI-H1975, 72 h
ULK2 = biological target: T16, ULK2 (Homo sapiens, UniProt Q8IYT8); experiment: KINOMEscan panel screen; type: binding; settings: read-out: Percent Control(%)
T16 construct: purchased DiscoveRx KINOMEscan (Ambit Biosciences)

ERBB4 = biological target: T17, ERBB4 (Homo sapiens, UniProt Q15303); experiment: KINOMEscan panel screen; type: binding; settings: read-out: Percent Control(%)
T17 construct: purchased DiscoveRx KINOMEscan (Ambit Biosciences)

TXK = biological target: T18, TXK (Homo sapiens, UniProt P42681); experiment: KINOMEscan panel screen; type: binding; settings: read-out: Percent Control(%)
T18 construct: purchased DiscoveRx KINOMEscan (Ambit Biosciences)

[3] = biological target: T19, ABL1(T315I)-phosphorylated (Homo sapiens, UniProt P00519, T315I); experiment: KINOMEscan panel screen; type: binding; settings: read-out: Percent Control(%)
T19 construct: purchased DiscoveRx KINOMEscan (Ambit Biosciences)

MEK6 = biological target: T20, MEK6 (Homo sapiens, UniProt P52564); experiment: KINOMEscan panel screen; type: binding; settings: read-out: Percent Control(%)
T20 construct: purchased DiscoveRx KINOMEscan (Ambit Biosciences)

H441 = experiment: MTT cell viability assay; settings: Homo sapiens, NCI-H441, 72 h
MEK3 = biological target: T21, MEK3 (Homo sapiens, UniProt P46734); experiment: KINOMEscan panel screen; type: binding; settings: read-out: Percent Control(%)
T21 construct: purchased DiscoveRx KINOMEscan (Ambit Biosciences)

FLT3-D835H = FLT3-D835H (Homo sapiens, UniProt P36888, D835H); experiment: KINOMEscan panel screen; type: binding; parameters: purchased DiscoveRx KINOMEscan (Ambit Biosciences); settings: read-out: Percent Control(%)
PIK3CA(Q546K) = biological target: T22, PIK3CA(Q546K) (Homo sapiens, UniProt P42336, Q546K); experiment: KINOMEscan panel screen; type: binding; settings: read-out: Percent Control(%)
T22 construct: purchased DiscoveRx KINOMEscan (Ambit Biosciences)

ROS1 = biological target: T23, ROS1 (Homo sapiens, UniProt P08922); experiment: KINOMEscan panel screen; type: binding; settings: read-out: Percent Control(%)
T23 construct: purchased DiscoveRx KINOMEscan (Ambit Biosciences)

[4] = biological target: T24, RSK1(Kin.Dom.2-C-terminal) (Homo sapiens, UniProt Q15418); experiment: KINOMEscan panel screen; type: binding; settings: read-out: Percent Control(%)
T24 construct: RSK1(Kin.Dom.2-C-terminal); purchased DiscoveRx KINOMEscan (Ambit Biosciences)

CSNK2A1 = biological target: T25, CSNK2A1 (Homo sapiens, UniProt P68400); experiment: KINOMEscan panel screen; type: binding; settings: read-out: Percent Control(%)
T25 construct: purchased DiscoveRx KINOMEscan (Ambit Biosciences)

CDKL5 = biological target: T26, CDKL5 (Homo sapiens, UniProt O76039); experiment: KINOMEscan panel screen; type: binding; settings: read-out: Percent Control(%)
T26 construct: purchased DiscoveRx KINOMEscan (Ambit Biosciences)

MYO3A = biological target: T27, MYO3A (Homo sapiens, UniProt Q8NEV4); experiment: KINOMEscan panel screen; type: binding; settings: read-out: Percent Control(%)
T27 construct: purchased DiscoveRx KINOMEscan (Ambit Biosciences)

CDK7 = biological target: T28, CDK7 (Homo sapiens, UniProt P50613); experiment: KINOMEscan panel screen; type: binding; settings: read-out: Percent Control(%)
T28 construct: purchased DiscoveRx KINOMEscan (Ambit Biosciences)

NIM1 = biological target: T29, NIM1 (Homo sapiens, UniProt Q8IY84); experiment: KINOMEscan panel screen; type: binding; settings: read-out: Percent Control(%)
T29 construct: purchased DiscoveRx KINOMEscan (Ambit Biosciences)

MAPKAPK2 = biological target: T30, MAPKAPK2 (Homo sapiens, UniProt P49137); experiment: KINOMEscan panel screen; type: binding; settings: read-out: Percent Control(%)
T30 construct: purchased DiscoveRx KINOMEscan (Ambit Biosciences)

BRAF = biological target: T31, BRAF (Homo sapiens, UniProt P15056); experiment: KINOMEscan panel screen; type: binding; settings: read-out: Percent Control(%)
T31 construct: purchased DiscoveRx KINOMEscan (Ambit Biosciences)

MERTK = biological target: T32, MERTK (Homo sapiens, UniProt Q12866); experiment: KINOMEscan panel screen; type: binding; settings: read-out: Percent Control(%)
T32 construct: purchased DiscoveRx KINOMEscan (Ambit Biosciences)

[5] = biological target: T33, RSK4(Kin.Dom.1-N-terminal) (Homo sapiens, UniProt Q9UK32); experiment: KINOMEscan panel screen; type: binding; settings: read-out: Percent Control(%)
T33 construct: RSK4(Kin.Dom.1-N-terminal); purchased DiscoveRx KINOMEscan (Ambit Biosciences)

AAK1 = biological target: T34, AAK1 (Homo sapiens, UniProt Q2M2I8); experiment: KINOMEscan panel screen; type: binding; settings: read-out: Percent Control(%)
T34 construct: purchased DiscoveRx KINOMEscan (Ambit Biosciences)

p38-beta = biological target: T35, p38-beta (Homo sapiens, UniProt Q15759); experiment: KINOMEscan panel screen; type: binding; settings: read-out: Percent Control(%)
T35 construct: purchased DiscoveRx KINOMEscan (Ambit Biosciences)

ERN1 = ERN1 (Homo sapiens, UniProt O75460); experiment: KINOMEscan panel screen; type: binding; settings: read-out: Percent Control(%)
IKK-beta = biological target: T36, IKK-beta (Homo sapiens, UniProt O14920); experiment: KINOMEscan panel screen; type: binding; settings: read-out: Percent Control(%)
T36 construct: purchased DiscoveRx KINOMEscan (Ambit Biosciences)

T6 sequence (O14578 whole entry): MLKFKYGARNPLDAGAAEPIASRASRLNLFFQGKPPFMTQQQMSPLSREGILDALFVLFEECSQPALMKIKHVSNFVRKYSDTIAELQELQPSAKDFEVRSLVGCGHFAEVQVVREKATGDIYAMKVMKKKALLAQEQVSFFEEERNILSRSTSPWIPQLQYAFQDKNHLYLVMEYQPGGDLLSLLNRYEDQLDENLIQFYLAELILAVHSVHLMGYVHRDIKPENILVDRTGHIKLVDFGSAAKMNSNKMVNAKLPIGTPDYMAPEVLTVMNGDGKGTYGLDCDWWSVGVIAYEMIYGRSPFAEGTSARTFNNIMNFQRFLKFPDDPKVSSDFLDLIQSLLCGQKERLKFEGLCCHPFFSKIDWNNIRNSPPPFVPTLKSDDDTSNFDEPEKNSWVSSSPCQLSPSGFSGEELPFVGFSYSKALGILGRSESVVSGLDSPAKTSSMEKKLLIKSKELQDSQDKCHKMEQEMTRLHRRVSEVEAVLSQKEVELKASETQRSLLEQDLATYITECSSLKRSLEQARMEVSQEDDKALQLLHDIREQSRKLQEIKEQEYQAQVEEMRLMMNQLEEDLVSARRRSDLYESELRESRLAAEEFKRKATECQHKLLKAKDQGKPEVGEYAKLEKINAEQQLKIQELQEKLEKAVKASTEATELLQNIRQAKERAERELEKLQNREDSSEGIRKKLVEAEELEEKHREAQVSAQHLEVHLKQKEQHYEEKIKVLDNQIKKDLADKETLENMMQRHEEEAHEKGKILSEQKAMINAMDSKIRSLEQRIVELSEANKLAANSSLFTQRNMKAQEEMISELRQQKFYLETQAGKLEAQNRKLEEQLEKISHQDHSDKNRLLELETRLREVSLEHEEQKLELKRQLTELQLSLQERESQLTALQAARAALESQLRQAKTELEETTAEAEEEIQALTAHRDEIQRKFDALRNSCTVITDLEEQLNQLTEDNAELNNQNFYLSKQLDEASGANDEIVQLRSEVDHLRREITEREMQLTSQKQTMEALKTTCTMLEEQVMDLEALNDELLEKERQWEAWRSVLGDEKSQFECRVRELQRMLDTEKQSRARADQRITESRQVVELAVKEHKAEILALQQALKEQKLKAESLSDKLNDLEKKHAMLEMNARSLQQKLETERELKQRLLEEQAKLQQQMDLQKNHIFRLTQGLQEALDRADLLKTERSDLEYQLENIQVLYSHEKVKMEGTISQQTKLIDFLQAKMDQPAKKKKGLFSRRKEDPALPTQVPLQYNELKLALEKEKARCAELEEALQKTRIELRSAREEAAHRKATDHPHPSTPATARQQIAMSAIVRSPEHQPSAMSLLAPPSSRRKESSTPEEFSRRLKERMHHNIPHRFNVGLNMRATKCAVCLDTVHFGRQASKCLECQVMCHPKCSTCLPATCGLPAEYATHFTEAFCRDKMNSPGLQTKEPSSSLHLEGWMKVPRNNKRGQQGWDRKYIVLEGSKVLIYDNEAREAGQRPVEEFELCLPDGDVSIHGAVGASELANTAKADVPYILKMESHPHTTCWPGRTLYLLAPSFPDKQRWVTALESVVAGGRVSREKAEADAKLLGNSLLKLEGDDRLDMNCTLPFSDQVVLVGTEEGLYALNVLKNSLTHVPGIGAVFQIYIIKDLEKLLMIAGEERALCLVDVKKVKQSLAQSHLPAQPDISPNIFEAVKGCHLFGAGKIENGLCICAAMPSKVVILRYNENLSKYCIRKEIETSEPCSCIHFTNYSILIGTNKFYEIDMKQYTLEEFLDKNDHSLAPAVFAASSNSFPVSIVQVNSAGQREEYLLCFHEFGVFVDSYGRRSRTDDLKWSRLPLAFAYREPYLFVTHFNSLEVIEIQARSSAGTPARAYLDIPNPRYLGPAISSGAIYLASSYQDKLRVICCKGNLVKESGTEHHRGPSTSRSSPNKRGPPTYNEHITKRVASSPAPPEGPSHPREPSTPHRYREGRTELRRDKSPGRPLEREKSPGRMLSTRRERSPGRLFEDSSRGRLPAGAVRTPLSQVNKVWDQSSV
T4 sequence (Q8NFD2 whole entry): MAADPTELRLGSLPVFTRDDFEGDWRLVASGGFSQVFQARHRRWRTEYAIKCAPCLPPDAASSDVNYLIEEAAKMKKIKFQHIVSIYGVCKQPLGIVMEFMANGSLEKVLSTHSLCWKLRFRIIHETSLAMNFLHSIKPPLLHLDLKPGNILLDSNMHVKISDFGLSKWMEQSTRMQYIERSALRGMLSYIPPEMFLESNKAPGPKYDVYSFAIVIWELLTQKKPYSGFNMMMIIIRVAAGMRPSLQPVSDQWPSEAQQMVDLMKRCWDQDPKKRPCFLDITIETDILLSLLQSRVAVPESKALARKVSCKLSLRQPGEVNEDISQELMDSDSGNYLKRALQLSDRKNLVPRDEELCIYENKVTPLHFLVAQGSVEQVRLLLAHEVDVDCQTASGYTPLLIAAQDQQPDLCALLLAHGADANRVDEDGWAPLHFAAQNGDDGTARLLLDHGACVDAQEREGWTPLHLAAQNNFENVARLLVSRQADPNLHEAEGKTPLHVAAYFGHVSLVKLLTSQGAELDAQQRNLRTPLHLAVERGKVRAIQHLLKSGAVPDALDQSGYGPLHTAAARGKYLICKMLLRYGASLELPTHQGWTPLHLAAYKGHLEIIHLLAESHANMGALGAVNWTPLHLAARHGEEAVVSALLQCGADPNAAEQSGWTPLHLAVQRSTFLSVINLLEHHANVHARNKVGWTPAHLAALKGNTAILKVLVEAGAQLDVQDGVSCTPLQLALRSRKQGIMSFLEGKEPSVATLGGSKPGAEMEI
T8 sequence (P35968 20-1356): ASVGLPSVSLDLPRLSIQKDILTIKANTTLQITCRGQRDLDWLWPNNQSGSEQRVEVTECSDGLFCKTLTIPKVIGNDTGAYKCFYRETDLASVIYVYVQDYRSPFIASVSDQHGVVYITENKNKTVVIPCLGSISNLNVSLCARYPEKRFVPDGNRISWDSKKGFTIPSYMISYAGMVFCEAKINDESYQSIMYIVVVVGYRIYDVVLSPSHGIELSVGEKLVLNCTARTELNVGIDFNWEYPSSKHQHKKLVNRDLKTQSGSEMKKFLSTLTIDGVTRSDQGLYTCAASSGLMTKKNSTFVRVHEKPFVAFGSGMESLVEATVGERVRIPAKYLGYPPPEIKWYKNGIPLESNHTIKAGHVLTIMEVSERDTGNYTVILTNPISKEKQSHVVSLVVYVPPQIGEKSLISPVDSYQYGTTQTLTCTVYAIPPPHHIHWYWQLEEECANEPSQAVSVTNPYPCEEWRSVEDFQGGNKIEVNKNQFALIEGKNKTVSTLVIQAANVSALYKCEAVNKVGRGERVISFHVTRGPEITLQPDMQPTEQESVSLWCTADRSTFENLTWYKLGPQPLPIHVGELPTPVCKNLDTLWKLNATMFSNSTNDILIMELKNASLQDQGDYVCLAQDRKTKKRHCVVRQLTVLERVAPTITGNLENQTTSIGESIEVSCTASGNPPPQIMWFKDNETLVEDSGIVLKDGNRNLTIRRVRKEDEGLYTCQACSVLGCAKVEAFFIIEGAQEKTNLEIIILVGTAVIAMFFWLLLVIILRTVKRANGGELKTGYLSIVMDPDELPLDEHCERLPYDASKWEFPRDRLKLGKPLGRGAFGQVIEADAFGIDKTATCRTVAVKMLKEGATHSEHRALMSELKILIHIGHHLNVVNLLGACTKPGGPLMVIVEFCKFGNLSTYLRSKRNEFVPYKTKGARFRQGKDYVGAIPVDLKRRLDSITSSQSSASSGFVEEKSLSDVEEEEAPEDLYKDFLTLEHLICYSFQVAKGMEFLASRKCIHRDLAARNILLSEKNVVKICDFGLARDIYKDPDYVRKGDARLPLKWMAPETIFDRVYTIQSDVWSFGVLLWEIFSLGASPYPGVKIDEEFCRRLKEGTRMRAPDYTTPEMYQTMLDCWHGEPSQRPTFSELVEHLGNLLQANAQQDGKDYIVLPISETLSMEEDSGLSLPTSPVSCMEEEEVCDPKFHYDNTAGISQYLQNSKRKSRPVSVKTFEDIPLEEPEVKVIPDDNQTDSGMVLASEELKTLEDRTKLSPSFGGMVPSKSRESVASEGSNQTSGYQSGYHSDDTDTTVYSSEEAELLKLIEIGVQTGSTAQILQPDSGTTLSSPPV
T24 sequence (Q15418 418-675 limits assumed): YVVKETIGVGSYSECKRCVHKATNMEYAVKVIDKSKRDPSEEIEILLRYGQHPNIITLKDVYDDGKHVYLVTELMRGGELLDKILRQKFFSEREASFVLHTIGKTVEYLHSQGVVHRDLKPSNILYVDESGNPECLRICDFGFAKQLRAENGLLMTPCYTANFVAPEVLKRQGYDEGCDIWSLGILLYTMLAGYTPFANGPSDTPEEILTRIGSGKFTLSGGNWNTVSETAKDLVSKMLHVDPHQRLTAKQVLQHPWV
T35 sequence (Q15759 whole entry): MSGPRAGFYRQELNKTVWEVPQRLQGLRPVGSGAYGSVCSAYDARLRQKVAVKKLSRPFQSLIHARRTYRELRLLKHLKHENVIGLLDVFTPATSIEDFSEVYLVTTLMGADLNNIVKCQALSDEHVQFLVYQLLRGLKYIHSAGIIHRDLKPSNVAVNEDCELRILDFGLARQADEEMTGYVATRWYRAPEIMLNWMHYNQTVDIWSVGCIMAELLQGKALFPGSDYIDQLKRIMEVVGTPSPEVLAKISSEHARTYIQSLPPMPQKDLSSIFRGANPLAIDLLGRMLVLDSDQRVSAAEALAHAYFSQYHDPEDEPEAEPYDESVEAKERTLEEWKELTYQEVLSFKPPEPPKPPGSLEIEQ
T28 sequence (P50613 whole entry): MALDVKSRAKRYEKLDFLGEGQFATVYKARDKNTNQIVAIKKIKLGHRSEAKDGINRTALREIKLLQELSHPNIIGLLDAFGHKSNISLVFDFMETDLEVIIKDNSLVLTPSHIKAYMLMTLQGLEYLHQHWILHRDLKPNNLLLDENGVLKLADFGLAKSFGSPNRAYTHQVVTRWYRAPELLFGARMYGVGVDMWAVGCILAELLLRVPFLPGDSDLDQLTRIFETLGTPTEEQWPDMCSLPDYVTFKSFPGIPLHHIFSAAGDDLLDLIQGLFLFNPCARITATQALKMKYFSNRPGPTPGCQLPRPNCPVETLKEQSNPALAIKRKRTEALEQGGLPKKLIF

CC(C)(C)c1cc(NC(=O)Nc2ccc(Oc3ncnc4[nH]ncc34)c(F)c2)no1 [SKLB-677, 1-(4-(1H-pyrazolo[3,4-d]pyrimidin-4-yloxy)-3-fluorophenyl)-3-(5-tert-butylisoxazol-3-yl)urea]
remaining binding at 10 µM (RIOK2): 88%
Kd (BTK): > 10000 nM
remaining binding at 10 µM (QSK): 91%
remaining binding at 10 µM (MKNK1): 0.1%
remaining binding at 10 µM (ANKK1): 57%
remaining binding at 10 µM (CSNK1E): 31%
remaining binding at 10 µM (CIT): 16%
remaining binding at 10 µM (SRPK1): 96%
Kd (VEGFR2): 11 nM
remaining binding at 10 µM (GSK3B): 96%
remaining binding at 10 µM [1]: 10%
Kd (FLT3-wt): 0.74 nM
remaining binding at 10 µM [2]: 5.6%
remaining binding at 10 µM (CDK5): 4.2%
remaining binding at 10 µM (EGFR(T790M)): 74%
remaining binding at 10 µM (CAMKK2): 30%
IC50 (H1975): > 10000 nM
remaining binding at 10 µM (ULK2): 97%
remaining binding at 10 µM (ERBB4): 81%
remaining binding at 10 µM (TXK): 88%
remaining binding at 10 µM [3]: 3.3%
remaining binding at 10 µM (MEK6): 62%
IC50 (H441): > 10000 nM
remaining binding at 10 µM (MEK3): 63%
remaining binding at 10 µM (FLT3-D835H): 0%
remaining binding at 10 µM (PIK3CA(Q546K)): 100%
remaining binding at 10 µM (ROS1): 0.1%
remaining binding at 10 µM [4]: 94%
remaining binding at 10 µM (CSNK2A1): 100%
remaining binding at 10 µM (CDKL5): 5%
remaining binding at 10 µM (MYO3A): 11%
remaining binding at 10 µM (CDK7): 3.1%
remaining binding at 10 µM (NIM1): 33%
remaining binding at 10 µM (MAPKAPK2): 100%
remaining binding at 10 µM (BRAF): 2.7%
remaining binding at 10 µM (MERTK): 0%
remaining binding at 10 µM [5]: 64%
remaining binding at 10 µM (AAK1): 72%
remaining binding at 10 µM (p38-beta): 0.2%
remaining binding at 10 µM (ERN1): 100%
remaining binding at 10 µM (IKK-beta): 64%
